Series [1] has as its target T1, FXR (Homo sapiens, UniProt Q96RI1).
T1 construct: purchased Invitrogen
Put plainly: Bile acid receptor FXR coactivator binding assay (LanthaScreen TR-FRET). Format: biochemical. Particulars: for EC50: TR-FRET coactivator assay, four-parameter fit, read-out: EC50 of the compounds on FXR; for Emax: read-out: Relative activation effect. As to the method: The Invitrogen⋅LanthaScreen™ TR-FRET Farnesoid X Receptor Coactivator Assay kit was employed to determine the activation effect of the compounds on FXR.
After the receptor was incubated with the test compound at various concentrations at room temperature, the fluorescent-labeled coactivator short peptides and terbium-labeled antibody were added, and the FRET signal was detected after the reaction was complete at room temperature. The group without the receptor protein was employed as a blank, the activation effect (EC50) and maximum activation effect signal value (Emax) of the test compounds on FXR were calculated according to the four-parameter fitting equation: y=E min+(E max−E min)/(1+(x/EC50)^(−Hillslope))
(Time-resolved FRET reads energy transfer from a long-lived donor to a nearby acceptor.)

The target in series [2] is T2, FXR (Homo sapiens, UniProt Q96RI1).
T2 construct: expressed in transfected cells; host or cells: HEK293
T2 sequence (Q96RI1 1-486): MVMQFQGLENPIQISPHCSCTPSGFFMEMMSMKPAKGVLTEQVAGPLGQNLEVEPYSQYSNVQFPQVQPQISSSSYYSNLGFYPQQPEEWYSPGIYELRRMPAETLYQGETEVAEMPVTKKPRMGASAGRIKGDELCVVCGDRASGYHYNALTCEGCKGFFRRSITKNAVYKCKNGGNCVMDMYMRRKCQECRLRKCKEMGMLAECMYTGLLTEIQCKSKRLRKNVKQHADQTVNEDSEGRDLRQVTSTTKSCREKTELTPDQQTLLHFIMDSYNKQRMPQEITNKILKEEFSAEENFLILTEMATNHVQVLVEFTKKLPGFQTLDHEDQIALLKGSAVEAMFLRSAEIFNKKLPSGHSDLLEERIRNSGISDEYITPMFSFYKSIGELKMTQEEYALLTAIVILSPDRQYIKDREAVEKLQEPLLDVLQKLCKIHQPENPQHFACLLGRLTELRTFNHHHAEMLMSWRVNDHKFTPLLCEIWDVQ
Put plainly: Luciferase reporter gene assay (HEK293 cotransfected with FXR and human BSEP luciferase reporter). It counts as cell-based. Particulars: for EC50: HEK293, 18 hours incubation; for Emax: HEK293, maximum activation effect, relative signal percentage, blank well = 100%. As for the experimental part: Human embryonic kidney cells HEK293 were cultured in a DMEM medium containing 10% FBS. Plasmids were cotransfected to allow the cells to have over expression of FXR and human BSEP luciferase reporter genes. The transfected cells were digested, resuspended, counted, and plated in a multi-well plate. 10 μL of the test compound at various concentrations was added to the multi-well plate to result in final concentrations of 64 μM, 16 μM, 4 μM, 1 μM, 0.25 μM, 0.0625 μM, 0.0156 μM, 0.0039 μM, 0.000975 μM, 0.000244 μM, 0 μM, and the final concentration of DMSO was 0.5%. After the test compound was incubated with the cells for 18 hours, the Brigh-Glo™ detection reagent was added, and the chemical light unit value (RLU) was detected by a multifunctional automatic microplate reader. Taking the signal value of the blank well (without the test compound) as 100%, the relative signal percentage (%) at each concentration of the test compound was calculated. The SigmaPlot 10 software was employed to fit the EC50 and the maximum activation effect Emax (relative signal percentage) of the test compounds using a four-parameter model.
For orientation: Reporter assays use an easily measured gene product as a stand-in for the process of interest.

A short description of series [3]: Pharmacokinetics (PK) and liver tissue distribution in rats. It counts as in vivo, rat. As for the experimental part:
The test compound was administered to male SD rats by intravenous (IV) and by gavage (PO), and the pharmacokinetics and liver tissue distribution characteristics of the test compound were evaluated. The doses of the IV and PO administration were respectively 1 mg/kg and 5 mg/kg. The vehicle for IV was 5% DMSO:5% Solutol:90% physiological saline, and the vehicle for PO was 0.5% MC. Blood and liver were collected at various time points after the IV and PO administration. The blood was treated with EDTA. K2 for anticoagulation, and was centrifuged to obtain a plasma sample; the liver was homogenized and stored at −80° C. The plasma and liver samples were analyzed by LC-MS/MS after being subjected to protein precipitation.
By employing the WinNonlin 6.3 software, the pharmacokinetic parameters were calculated according to a non-compartment model.

[4] abbreviates: IV, 1 mg/kg, male SD rats, plasma.
Setting [5] is: PO, 5 mg/kg, male SD rats, blood.
Setting [6] is: PO, 5 mg/kg, male SD rats, liver.

Take `O=C(O)c1ccc(-c2csc(N3[C@@H]4CC[C@H]3C[C@@H](OCc3c(-c5ccccc5OC(F)(F)F)noc3C3CC3)C4)n2)cn1` [Compound C50, 5-(2-((1R,3r,5S)-3-((5-cyclopropyl-3-(2-(trifluoromethoxy)phenyl)isoxazol-4-yl)methoxy)-8-azabicyclo[3.2.1]octan-8-yl)thiazol-4-yl)picolinic acid]: on FXR [1], the EC50 (commonly the concentration at which the effect is half-maximal) was 31 ± 8 nM and the Emax came to 177%.

As to `O=C(O)c1ccc(-c2csc(N3[C@@H]4CC[C@H]3C[C@@H](OCc3c(-c5ccccc5OC(F)(F)F)noc3C3CC3)C4)n2)s1` [Compound C35, 5-(2-((1R,3r,5S)-3-((5-cyclopropyl-3-(2-(trifluoromethoxy)phenyl)isoxazol-4-yl)methoxy)-8-azabicyclo[3.2.1]octan-8-yl)thiazol-4-yl)thiophene-2-carboxylic acid], on FXR [2], the EC50 is 91 ± 38 nM and the Emax stood at 378%. Further, at FXR [1], the EC50 was 13 ± 3 nM and the Emax came out at 152%.

With `Cc1cc(C(=O)O)ccc1-c1csc(N2[C@@H]3CC[C@H]2C[C@@H](OCc2c(-c4ccccc4OC(F)(F)F)noc2C2CC2)C3)n1` [Compound C42, 4-(2-((1R,3r,5S)-3-((5-cyclopropyl-3-(2-(trifluoromethoxy)phenyl)isoxazol-4-yl)methoxy)-8-azabicyclo[3.2.1]octan-8-yl)thiazol-4-yl)-3-methylbenzoic acid], at FXR [2], a half-maximal response (EC50) required 33 ± 18 nM and the Emax was determined as 320%.

Consider `O=C(O)c1ccc(-c2csc(N3[C@@H]4CC[C@H]3C[C@@H](OCc3c(-c5ccccc5OC(F)(F)F)noc3C3CC3)C4)n2)cc1F` [Compound C44, 4-(2-((1R,3r,5S)-3-((5-cyclopropyl-3-(2-(trifluoromethoxy)phenyl)isoxazol-4-yl)methoxy)-8-azabicyclo[3.2.1]octan-8-yl)thiazol-4-yl)-2-fluorobenzoic acid], for which the values for the EC50 at FXR [2] and at FXR [1] were 21 ± 6 nM and 22 ± 5 nM, respectively. For the same compound, the Emax on FXR [2] stood at 322%; on FXR [1], 137%.

With `O=C(O)c1csc(-c2csc(N3[C@@H]4CC[C@H]3C[C@@H](OCc3c(-c5ccccc5OC(F)(F)F)noc3C3CC3)C4)n2)c1` [Compound C48, 5-(2-((1R,3r,5S)-3-((5-cyclopropyl-3-(2-(trifluoromethoxy)phenyl)isoxazol-4-yl)methoxy)-8-azabicyclo[3.2.1]octan-8-yl)thiazol-4-yl)thiophene-3-carboxylic acid], at FXR [2], the EC50 turned out to be 39 ± 17 nM and the Emax was determined as 382%.

On to `O=C(O)c1ccc(-c2csc(N3[C@@H]4CC[C@H]3C[C@@H](OCc3c(-c5ccccc5OC(F)(F)F)noc3C3CC3)C4)n2)c(C(F)(F)F)c1` [Compound C45, 4-(2-((1R,3r,5S)-3-((5-cyclopropyl-3-(2-(trifluoromethoxy)phenyl)isoxazol-4-yl)methoxy)-8-azabicyclo[3.2.1]octan-8-yl)thiazol-4-yl)-3-(trifluoromethyl)benzoic acid], for which, at FXR [1], the EC50 is 110 ± 21 nM and the Emax stood at 113%.

As for `O=C(O)c1ccc(-c2csc(N3[C@@H]4CC[C@H]3C[C@@H](OCc3c(-c5ccccc5OC(F)(F)F)noc3C3CC3)C4)n2)c(F)c1` [Compound C43, 4-(2-((1R,3r,5S)-3-((5-cyclopropyl-3-(2-(trifluoromethoxy)phenyl)isoxazol-4-yl)methoxy)-8-azabicyclo[3.2.1]octan-8-yl)thiazol-4-yl)-3-fluorobenzoic acid], at FXR [2], a half-maximal effect (EC50) was put at 37 ± 19 nM and the Emax amounted to 343%.

Turning to `O=C(O)c1ccc(-c2csc(N3[C@@H]4CC[C@H]3C[C@@H](OCc3c(-c5ccccc5OC(F)(F)F)noc3C3CC3)C4)n2)cc1` [Compound C41, 4-(2-((1R,3r,5S)-3-((5-cyclopropyl-3-(2-(trifluoromethoxy)phenyl)isoxazol-4-yl)methoxy)-8-azabicyclo[3.2.1]octan-8-yl)thiazol-4-yl)benzoic acid], on FXR [2], the EC50 is 58 ± 23 nM and the Emax was found to be 252%.

Regarding `Cn1nc(C(=O)O)cc1-c1cccc(N2CCC(OCc3c(-c4c(Cl)cccc4Cl)noc3C3CC3)CC2)c1` [Compound C6, 5-(3-(4-((5-cyclopropyl-3-(2,6-dichlorophenyl)isoxazol-4-yl)methoxy)piperidin-1-yl)phenyl)-1-methyl-1H-pyrazole-3-carboxylic acid], the EC50 on FXR [1] amounted to 206 ± 18 nM.

As to `O=C(O)c1cc(-c2csc(N3[C@@H]4CC[C@H]3C[C@@H](OCc3c(-c5ccccc5OC(F)(F)F)noc3C3CC3)C4)n2)cs1` [Compound C47, 4-(2-((1R,3r,5S)-3-((5-cyclopropyl-3-(2-(trifluoromethoxy)phenyl)isoxazol-4-yl)methoxy)-8-azabicyclo[3.2.1]octan-8-yl)thiazol-4-yl)thiophene-2-carboxylic acid], at FXR [2], the EC50 is 19 ± 7 nM and the Emax was 370%.

With `Cc1cc(C(=O)O)ccc1-c1csc(N2[C@@H]3CC[C@H]2C[C@@H](OCc2c(-c4c(Cl)cccc4Cl)noc2C2CC2)C3)n1` [Compound C37, 4-(2-((1R,3r,5S)-3-((5-cyclopropyl-3-(2,6-dichlorophenyl)isoxazol-4-yl)methoxy)-8-azabicyclo[3.2.1]octan-8-yl)thiazol-4-yl)-3-methylbenzoic acid], the results for the EC50 on FXR [2] and on FXR [1] were 6 ± 2 nM and 15 ± 1 nM, respectively. Moreover, the Emax at FXR [2] came out at 411%; on FXR [1], 139%.

Regarding `O=C(O)c1ccc(-c2csc(N3CCC(OCc4c(-c5c(Cl)cccc5Cl)noc4C4CC4)CC3)n2)cc1` [Compound C2, 4-(2-(4-((5-cyclopropyl-3-(2,6-dichlorophenyl)isoxazol-4-yl)methoxy)piperidin-1-yl)thiazol-4-yl)benzoic acid], on FXR [2], it took 20 ± 10 nM to reach a half-maximal effect (EC50) and the Emax stood at 248%. At FXR [1], the EC50 was determined as 12 ± 4 nM and the Emax came out at 101%. In series [3] (setting [4]), the AUClast amounted to 2409 ± 108 ng·h/mL and the Cmax (commonly the maximum level reached in the sampled fluid or tissue) is 4343 ± 172 ng/mL. In series [3] (setting [5]), the “AUClast (blood)” value came to 1177 ± 304 ng·h/mL and the “Cmax (blood)” value was 252 ± 30 ng/mL. In series [3] (setting [6]), the “AUClast (liver)” value is 14941 ± 4276 ng·h/g and the “Cmax (liver)” value was 3367 ± 830 ng/g. Besides, the liver enrichment result in series [3] (PO, 5 mg/kg, rats, liver versus blood exposure) is “significant liver enrichment effect”.

Regarding `Cn1nc(C(=O)O)cc1-c1ccc(N2CCC(OCc3c(-c4c(Cl)cccc4Cl)noc3C3CC3)CC2)cc1` [Compound C3, 5-(4-(4-((5-cyclopropyl-3-(2,6-dichlorophenyl)isoxazol-4-yl)methoxy)piperidin-1-yl)phenyl)-1-methyl-1H-pyrazole-3-carboxylic acid], the EC50 at FXR [1] was 42 ± 7 nM.

For the compound `Cn1nc(-c2ccc(N3CCC(OCc4c(-c5c(Cl)cccc5Cl)noc4C4CC4)CC3)cc2)cc1C(=O)O` [Compound C4, 3-(4-(4-((5-cyclopropyl-3-(2,6-dichlorophenyl)isoxazol-4-yl)methoxy)piperidin-1-yl)phenyl)-1-methyl-1H-pyrazole-5-carboxylic acid], at FXR [2], the EC50 came out at 40 ± 10 nM and the Emax came to 255%. On FXR [1], the EC50 came to 10 ± 1 nM and the Emax was found to be 102%.

For `O=C(O)c1cccc(-c2csc(N3CCC(OCc4c(-c5c(Cl)cccc5Cl)noc4C4CC4)CC3)n2)c1` [Compound C1, 3-(2-(4-((5-cyclopropyl-3-(2,6-dichlorophenyl)isoxazol-4-yl)methoxy)piperidin-1-yl)thiazol-4-yl)benzoic acid], the EC50 on FXR [1] came out at 178 ± 21 nM.

For the origin of these results see US11667629B2, “Isoxazole derivative, preparation method therefor, and use thereof” (SICHUAN KELUN-BIOTECH BIOPHARMACEUTICAL CO., LTD., priority 2017, dated 2023).
